ChEMBL document CHEMBL4152341, “Small Molecules Simultaneously Inhibiting p53-Murine Double Minute 2 (MDM2) Interaction and Histone Deacetylases (HDACs): Discovery of Novel Multitargeting Antitumor Agents” (J Med Chem, 2018)

What was measured:
A549 [1] = assay: cells; details: Homo sapiens, A549, 48 h, read-out: Activity
A549 [2] = assay: Antitumor activity against human A549 cells xenografted in BALB/C nude mouse assessed as inhibition of tumor growth at 150 mg/kg, po administered once daily for 21 days starting day 11 after tumor cells implantation; format: functional; details: read-out: TGI
Rattus norvegicus [3] = assay: Volume of distribution at steady state in Sprague-Dawley rat at 2 mg/kg, iv administered as bolus dose by LC-MS/MS analysis; format: ADME, organism-based; details: in vivo
HCT-116 = assay: Antiproliferative activity against human HCT116 cells after 72 hrs by CCK8 assay; format: functional, cell-based; details: HCT-116, 72 h
Mus musculus [4] = assay: Toxicity in human A549 cells xenografted in BALB/C nude mouse assessed as induction of adverse effects at 100 to 150 mg/kg, po administered once daily for 21 days starting day 11 after tumor cells implantation; format: organism-based; details: in vivo, 504 h
A549 [5] = assay: animal or person; format: functional, Homo sapiens; details: Mus musculus, A549, po, read-out: TGI
NCI-H1299 = assay: Antiproliferative activity against human NCI-H1299 cells after 72 hrs by CCK8 assay; format: functional, cell-based; details: NCI-H1299, 72 h
[6] = Tmax in Sprague-Dawley rat at 20 mg/kg, po administered via gavage by LC-MS/MS analysis; format: ADME, organism-based; details: in vivo
[7] = Terminal half life in Sprague-Dawley rat at 2 mg/kg, iv administered as bolus dose by LC-MS/MS analysis; format: ADME, organism-based; details: in vivo, read-out: beta t1/2 (converted)
[8] = target: E3 ubiquitin-protein ligase Mdm2 (Homo sapiens, UniProt Q00987); assay: Inhibition of MDM2 (unknown origin) preincubated for 30 mins by fluorescence polarization assay
[9] = target: T1, Protein deacetylase HDAC6 (Homo sapiens, UniProt Q9UBN7); assay: Inhibition of HDAC6 (unknown origin) after 30 mins by fluorescence assay
T1 sequence (Q9UBN7 whole entry): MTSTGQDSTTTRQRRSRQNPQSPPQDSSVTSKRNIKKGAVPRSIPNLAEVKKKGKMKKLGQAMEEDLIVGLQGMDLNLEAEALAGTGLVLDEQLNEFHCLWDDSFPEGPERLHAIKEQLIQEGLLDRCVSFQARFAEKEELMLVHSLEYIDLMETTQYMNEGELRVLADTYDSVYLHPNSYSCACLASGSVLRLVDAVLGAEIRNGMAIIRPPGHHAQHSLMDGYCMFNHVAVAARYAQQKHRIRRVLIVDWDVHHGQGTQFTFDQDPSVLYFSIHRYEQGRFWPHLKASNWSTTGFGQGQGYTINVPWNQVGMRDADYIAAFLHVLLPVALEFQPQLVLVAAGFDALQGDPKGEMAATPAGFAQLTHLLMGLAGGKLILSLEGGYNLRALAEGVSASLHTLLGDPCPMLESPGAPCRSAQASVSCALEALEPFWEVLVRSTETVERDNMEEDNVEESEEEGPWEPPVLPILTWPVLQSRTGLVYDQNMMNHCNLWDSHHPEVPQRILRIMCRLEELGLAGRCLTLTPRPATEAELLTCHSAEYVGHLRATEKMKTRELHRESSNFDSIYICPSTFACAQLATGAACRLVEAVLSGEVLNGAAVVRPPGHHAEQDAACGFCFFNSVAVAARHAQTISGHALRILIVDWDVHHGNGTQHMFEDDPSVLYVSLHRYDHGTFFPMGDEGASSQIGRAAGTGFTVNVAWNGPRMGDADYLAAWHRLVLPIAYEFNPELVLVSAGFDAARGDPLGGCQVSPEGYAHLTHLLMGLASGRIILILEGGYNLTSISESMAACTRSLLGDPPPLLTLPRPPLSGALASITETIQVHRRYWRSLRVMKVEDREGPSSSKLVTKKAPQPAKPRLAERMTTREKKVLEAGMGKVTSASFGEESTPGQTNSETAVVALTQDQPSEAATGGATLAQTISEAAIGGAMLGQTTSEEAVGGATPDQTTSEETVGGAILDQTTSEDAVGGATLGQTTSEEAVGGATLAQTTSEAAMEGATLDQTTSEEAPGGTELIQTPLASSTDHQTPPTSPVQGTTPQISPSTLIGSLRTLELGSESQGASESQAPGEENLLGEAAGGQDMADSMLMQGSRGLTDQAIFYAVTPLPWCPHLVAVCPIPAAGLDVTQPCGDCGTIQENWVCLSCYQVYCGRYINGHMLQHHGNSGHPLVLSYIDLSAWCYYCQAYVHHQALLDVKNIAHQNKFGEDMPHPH

Rattus norvegicus [10] = assay: Clearance in Sprague-Dawley rat at 2 mg/kg, iv administered as bolus dose by LC-MS/MS analysis; format: ADME, organism-based; details: in vivo
Rattus norvegicus [11] = assay: Oral bioavailability in Sprague-Dawley rat at 20 mg/kg administered via gavage by LC-MS/MS analysis; format: ADME, organism-based; details: in vivo
Histone deacetylase 8 = target: T2, Histone deacetylase 8 (Homo sapiens, UniProt Q9BY41); assay: Inhibition of HDAC8 (unknown origin) after 30 mins by fluorescence assay
T2 sequence (Q9BY41 whole entry): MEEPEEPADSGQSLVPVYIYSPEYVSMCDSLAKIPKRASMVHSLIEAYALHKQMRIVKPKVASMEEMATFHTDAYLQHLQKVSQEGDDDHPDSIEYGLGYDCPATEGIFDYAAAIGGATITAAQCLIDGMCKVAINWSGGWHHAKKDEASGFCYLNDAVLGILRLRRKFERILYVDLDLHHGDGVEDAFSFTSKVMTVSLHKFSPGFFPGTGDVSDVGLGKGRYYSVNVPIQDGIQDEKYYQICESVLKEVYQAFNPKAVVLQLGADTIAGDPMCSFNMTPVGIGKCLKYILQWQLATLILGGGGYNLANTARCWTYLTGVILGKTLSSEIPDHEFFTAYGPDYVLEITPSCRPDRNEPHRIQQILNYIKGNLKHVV

MCF7 = assay: cells; details: Homo sapiens, MCF7, 72 h
Description: Antiproliferative activity against human MCF7 cells after 72 hrs by CCK8 assay

Mus musculus [12] = assay: Toxicity in human A549 cells xenografted in BALB/C nude mouse assessed as body weight loss at 100 to 150 mg/kg, po administered once daily for 21 days starting day 11 after tumor cells implantation; format: organism-based; details: in vivo, 504 h
Rattus norvegicus [13] = assay: AUC (0 to infinity) in Sprague-Dawley rat at 2 mg/kg, iv administered as bolus dose by LC-MS/MS analysis; format: ADME, organism-based; parameters: dose 2 mg/kg, time infinity, route intravenous; details: in vivo
A549 [14] = assay: cells; details: Homo sapiens, A549, 48 h, read-out: Activity; remark: listed apart in the source
A549 [15] = assay: Antitumor activity against human A549 cells xenografted in BALB/C nude mouse assessed as inhibition of tumor growth administered orally once daily for 21 days starting day 11 after tumor cells implantation; format: functional, cell-based
[16] = Cmax in Sprague-Dawley rat at 2 mg/kg, iv administered as bolus dose by LC-MS/MS analysis; format: ADME, organism-based; parameters: dose 2 mg/kg, route intravenous; details: in vivo
A549 [17] = assay: Antiproliferative activity against human A549 cells after 72 hrs by CCK8 assay; format: functional, cell-based; details: A549, 72 h
[18] = Terminal half life in Sprague-Dawley rat at 20 mg/kg, po administered via gavage by LC-MS/MS analysis; format: ADME, organism-based; details: in vivo, read-out: beta t1/2 (converted)
Histone deacetylase 3 = Histone deacetylase 3 (Homo sapiens, UniProt O15379); assay: Inhibition of HDAC3 (unknown origin) after 30 mins by fluorescence assay
Histone deacetylase 2 = Histone deacetylase 2 (Homo sapiens, UniProt Q92769); assay: Inhibition of HDAC2 (unknown origin) after 30 mins by fluorescence assay
[19] = Tmax in Sprague-Dawley rat at 2 mg/kg, iv administered as bolus dose by LC-MS/MS analysis; format: ADME, organism-based; details: in vivo
Histone deacetylase 1 = Histone deacetylase 1 (Homo sapiens, UniProt Q13547); assay: Inhibition of human recombinant full length HDAC1 using fluorogenic substrate 3 after 30 mins by fluorescence assay
[20] = Cmax in Sprague-Dawley rat at 20 mg/kg, po administered via gavage by LC-MS/MS analysis; format: ADME, organism-based; parameters: dose 20 mg/kg, route oral; details: in vivo
Rattus norvegicus [21] = assay: AUC (0 to infinity) in Sprague-Dawley rat at 20 mg/kg, po administered via gavage by LC-MS/MS analysis; format: ADME, organism-based; parameters: dose 20 mg/kg, route oral, time infinity; details: in vivo

Chain of Histone deacetylase 1 (Q13547 whole entry): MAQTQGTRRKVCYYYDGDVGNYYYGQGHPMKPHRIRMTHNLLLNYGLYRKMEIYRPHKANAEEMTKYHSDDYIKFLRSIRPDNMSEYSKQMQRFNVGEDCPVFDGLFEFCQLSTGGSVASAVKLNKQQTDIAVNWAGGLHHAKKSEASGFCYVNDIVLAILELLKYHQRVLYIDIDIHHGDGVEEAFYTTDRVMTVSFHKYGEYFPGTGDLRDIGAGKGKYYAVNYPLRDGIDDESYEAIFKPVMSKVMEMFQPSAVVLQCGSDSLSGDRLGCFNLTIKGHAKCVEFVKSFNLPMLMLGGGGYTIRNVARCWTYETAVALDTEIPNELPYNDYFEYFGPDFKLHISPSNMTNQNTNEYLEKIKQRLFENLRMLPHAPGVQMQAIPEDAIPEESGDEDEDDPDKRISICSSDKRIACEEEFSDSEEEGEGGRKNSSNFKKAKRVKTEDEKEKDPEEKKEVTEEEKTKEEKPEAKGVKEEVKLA
Chain of Histone deacetylase 2 (Q92769 whole entry): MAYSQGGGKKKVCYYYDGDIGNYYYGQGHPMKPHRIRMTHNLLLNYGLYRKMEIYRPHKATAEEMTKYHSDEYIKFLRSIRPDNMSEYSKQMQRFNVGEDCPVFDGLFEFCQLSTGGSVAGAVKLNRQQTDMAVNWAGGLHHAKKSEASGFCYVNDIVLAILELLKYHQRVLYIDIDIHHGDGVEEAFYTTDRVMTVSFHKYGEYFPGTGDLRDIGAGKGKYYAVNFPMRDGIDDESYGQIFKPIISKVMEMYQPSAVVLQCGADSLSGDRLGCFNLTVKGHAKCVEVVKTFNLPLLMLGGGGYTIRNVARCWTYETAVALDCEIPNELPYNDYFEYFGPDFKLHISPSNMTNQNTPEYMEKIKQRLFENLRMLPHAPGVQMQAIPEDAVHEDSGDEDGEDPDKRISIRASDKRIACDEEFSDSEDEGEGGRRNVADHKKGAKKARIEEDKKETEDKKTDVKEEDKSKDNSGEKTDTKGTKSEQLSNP
Chain of E3 ubiquitin-protein ligase Mdm2 (Q00987 whole entry): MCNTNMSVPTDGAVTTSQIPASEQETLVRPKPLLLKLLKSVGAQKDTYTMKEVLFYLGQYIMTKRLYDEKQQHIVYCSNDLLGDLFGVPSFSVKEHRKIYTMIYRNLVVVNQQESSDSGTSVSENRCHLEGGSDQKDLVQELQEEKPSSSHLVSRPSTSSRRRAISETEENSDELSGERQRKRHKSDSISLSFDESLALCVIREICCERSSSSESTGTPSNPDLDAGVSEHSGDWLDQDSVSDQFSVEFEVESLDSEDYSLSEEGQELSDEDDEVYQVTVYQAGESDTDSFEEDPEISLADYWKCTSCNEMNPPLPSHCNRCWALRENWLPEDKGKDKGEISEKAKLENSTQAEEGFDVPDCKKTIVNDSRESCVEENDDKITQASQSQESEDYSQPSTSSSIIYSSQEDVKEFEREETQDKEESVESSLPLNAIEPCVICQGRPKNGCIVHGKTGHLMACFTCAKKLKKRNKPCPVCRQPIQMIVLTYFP
Chain of Histone deacetylase 3 (O15379 whole entry): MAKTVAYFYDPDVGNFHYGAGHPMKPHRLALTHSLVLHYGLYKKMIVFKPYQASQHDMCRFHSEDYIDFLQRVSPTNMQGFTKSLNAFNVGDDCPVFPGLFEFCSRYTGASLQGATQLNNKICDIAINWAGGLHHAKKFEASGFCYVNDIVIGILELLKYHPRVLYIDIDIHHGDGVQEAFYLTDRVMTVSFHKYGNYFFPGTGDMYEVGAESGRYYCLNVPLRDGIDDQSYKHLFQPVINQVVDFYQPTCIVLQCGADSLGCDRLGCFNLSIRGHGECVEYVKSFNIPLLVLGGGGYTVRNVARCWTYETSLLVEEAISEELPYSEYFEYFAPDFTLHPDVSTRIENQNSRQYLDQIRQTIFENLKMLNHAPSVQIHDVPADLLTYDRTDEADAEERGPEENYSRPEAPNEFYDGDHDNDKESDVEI

CCOc1cc(C(C)(C)C)ccc1C1=NC(c2ccc(Cl)cc2)C(c2ccc(Cl)cc2)N1C(=O)N1CCN(CCCCCCC(=O)NO)CC1 (stereo not drawn)
viability at 5 µM (A549 [1]): 64.9%
inhibition in vivo at 150 mg/kg (A549 [2]): 74.5%
Vdss (Rattus norvegicus [3]): 4.9 L/kg
IC50 (HCT-116): 1080 nM
Activity (Mus musculus [4]): Non-Toxic
inhibition in vivo at 100 mg/kg (A549 [5]): 65.4%
IC50 (NCI-H1299): 4160 nM
Tmax [6]: 3.33 h
half-life [7]: 1.22 h
Ki [8]: 110 nM
IC50 [9]: 17.5 nM
clearance (Rattus norvegicus [10]): 46.8 mL/min/kg
F (Rattus norvegicus [11]): 18%
IC50 (Histone deacetylase 8): 1220 nM
IC50 (MCF7): 4340 nM
Activity (Mus musculus [12]): Non-Toxic
AUC (Rattus norvegicus [13]): 716.3 ng·h/mL
viability at 1 µM (A549 [14]): 77.2%
TGI (A549 [15]): Dose-dependent effect
Cmax [16]: 1470 ng/mL
IC50 (A549 [17]): 910 nM
half-life [18]: 5.87 h
IC50 (Histone deacetylase 3): 178 nM
IC50 (Histone deacetylase 2): 420 nM
Tmax [19]: 4.98 min
IC50 (Histone deacetylase 1): 820 nM
Cmax [20]: 93.7 ng/mL
AUC (Rattus norvegicus [21]): 323.23 ng·h/mL
